{"source": "patent US20160193240A1", "about": "“Ulmoside-A: Useful For Prevention Or Cure Of Metabolic Diseases” (COUNCIL OF SCIENTIFIC & INDUSTRIAL RESEARCH, priority 2013, published 2016)", "key": {"[1]": {"tested_on": "GAL-PPARα", "assay": "PPARα activation assay (GAL-PPARα / GAL4-Luc reporter) in HEK293 cells expressing endogenous AdipoR1", "format": "cell-based, human", "description": "A. ULMA enhances PPARα ligand activity; HEK293 cells were seeded on to 24 well plates and after 24 h, transfected with 100 ng of GAL-PPARα and 100 ng GAL4-Luc along with 100 ng eGFPC1 (Clontech) plasmids using lipofectamine LTX (Invitrogen) according to manufacturer's instructions. 24 h after transfection, cells were treated with or without 100 pM GW-7647 alone or in combination with 100 nM ULMA or 1 μg/ml globular adiponectin (gAd) for 6 h. Following which, the cells were lysed and GFP fluorescence and firefly luciferase activities were measured. Luciferase activity was normalized with GFP fluorescence and plotted as fold activity over vehicle (0.1% DMSO) treated control. Data shown in mean±SEM of three independent experiments performed in duplicates. *p<0.05 as determined by two tailed unpaired student's t-test.\nThe potential of ULMA to activate adiponectin receptor signaling was evaluated using a PPARα activation assay. […] 24 hours following plating, these cells were transfected with 100 ng of GAL-PPARα (PPARα cDNA fused with GAL4 DNA binding domain) and 100 ng GAL4 upstream activation sequence driven luciferase (GAL4-Luc) reporter gene that is capable of binding to any protein fused to GAL4-DNA binding domain (in this case GAL-PPARα) and 100 ng Green fluorescence expressing plasmid (GFP) that was used as an internal control, using lipofectamine LTX transfection reagent (Invitrogen) according to manufacturers' instructions. […] The cells were then lysed and luciferase activity was measured in a Promega GloMax luminometer using steady Glo luciferase assay kit (Promega) according to manufacturers' instructions; and GFP fluorescence was measured in a fluorimeter (Polarstar Galaxy, BMG Labtech). […]"}, "[2]": {"tested_on": "C2C12 myotubes", "assay": "Mitochondrial DNA content by QRT-PCR in C2C12 myotubes", "format": "cell-based, mouse", "conditions": "10 nM, 72 hours", "description": "D. ULMA increases mitochondrial DNA content. C2C12 myotubes in 6 well plates were treated with vehicle (0.1% vol/vol DMSO) or 10 nM ULMA (in DMSO) for 72 h. Following which, total cellular DNA was isolated from these cells by standard procedure (using a genomic DNA isolation kit; Macherey Nagel; according to manufacturer's instructions) and the mitochondrial DNA content was measured by QRT-PCR based measurement of mitochondrial coxII (Mit-CoxII) and cytochrome b (Cytb) and normalized with genomic glycerol three phosphate dehydrogenase DNA level. Data represent mean±SEM from three independent experiments performed in triplicates. *p<0.05 as determined by two tailed unpaired student's t-test.\nAdiponectin is also known to activate PGC-1α by indirectly deacetylating this protein through activation of sirt1 (M. Iwabu, T. Yamauchi, M. Okada-Iwabu, K. Sato, T. Nakagawa, M. Funata, M. Yamaguchi, S. Namiki, R. Nakayama, M. Tabata, H. Ogata, N. Kubota, I. Takamoto, Y. K. Hayashi, N. Yamauchi, H. Waki, M. Fukayama, I. Nishino, K. Tokuyama, K. Ueki, Y. Oike, S. Ishii, K. Hirose, T. Shimizu, K. Touhara, T. Kadowaki. Nature; 464(7293): 1313-1319. 2010), therefore PGC-1α acetylation status following ULMA treatment was checked in C2C12 cells. C2C12 myotubes plated in 10 cm dish were treated with vehicle (DMSO) or 10 nM ULMA in DMSO for 6 hours. […]"}, "[3]": {"tested_on": "rats", "conditions": "cited from earlier work"}}, "data": [{"smiles": "O=C1c2c(cc(O)c([C@@H]3O[C@H](CO)[C@@H](O)[C@H](O)[C@H]3O)c2O)O[C@@H](c2ccc(O)c(O)c2)[C@@H]1O", "note": "[ULMA, (2S,3S)-(+)-3′,4′,5,7-tetrahydroxydihydroflavonol-6-C-β-D-glucopyranoside]", "values": [{"measurement": "potency in enhancing PPARα ligand activity, comparison", "setting": "[1]; 100 nM ULMA vs 1 μg/ml globular adiponectin, with 100 pM GW-7647", "value": "more potent than globular adiponectin"}, {"measurement": "enhancement of GW-7647 induced luciferase activity (PPARα ligand activity)", "setting": "[1]; co-treatment with 100 pM GW-7647, 100 nM ULMA or 1 μg/ml globular adiponectin, 6 hours", "value": "further enhanced"}, {"measurement": "Cytochrome B (Cytb) DNA level", "setting": "[2]", "value": "enhanced"}, {"measurement": "mitochondrial cytochrome oxidase II (COX-II) DNA level", "setting": "[2]", "value": "enhanced"}, {"measurement": "effect on ovariectomy-induced osteoporosis", "setting": "[3]", "value": "mitigated ovariectomy-induced osteoporosis"}]}]}
